This experiment deals with Mu-type opioid receptor (Homo sapiens) (UniProt P35372). Kind of experiment: OPRM1 agonists via beta-arrestin recruitment, late-stage follow-up, counter-screen for mouse HTR2A agonist project, cell-based, luminescence, dose response, powder samples (AID 720642). Particulars: U2OS OPRM1 beta-arrestin complementation.

Active and inactive are the calls of the source.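 How the source made its calls: active means EC50 activation potency at or below 10 µM in this mu opioid counterscreen; inactive means EC50 above 10 µM or never reaching half activation.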

Sequence of Mu-type opioid receptor (Homo sapiens) (P35372 whole entry, looked up): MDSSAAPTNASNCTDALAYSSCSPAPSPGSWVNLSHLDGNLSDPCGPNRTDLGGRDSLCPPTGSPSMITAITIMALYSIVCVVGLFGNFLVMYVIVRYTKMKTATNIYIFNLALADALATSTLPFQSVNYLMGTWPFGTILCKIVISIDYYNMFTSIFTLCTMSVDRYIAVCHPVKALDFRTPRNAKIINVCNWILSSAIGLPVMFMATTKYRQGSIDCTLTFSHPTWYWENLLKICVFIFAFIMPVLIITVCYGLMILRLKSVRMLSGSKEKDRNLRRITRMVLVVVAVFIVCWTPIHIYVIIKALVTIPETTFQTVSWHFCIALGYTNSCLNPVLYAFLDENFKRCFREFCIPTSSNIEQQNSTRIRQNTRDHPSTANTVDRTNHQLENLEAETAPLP

As usually defined, the EC50 is the midpoint of the concentration-response curve. Consider `Brc1cccc(CN2CCN(c3ncccn3)CC2)c1`, for which the EC50 is > 92.5 µM (inactive). As to `COc1ccc(CC2(CO)CCN(Cc3cc4ccccc4o3)CC2)cc1`, the EC50 is > 92.5 µM (inactive). In the case of `CCOC(=O)N1CCN(Cc2ccc(OCC(O)CN3CCCCC3)cc2)CC1` (centres undefined), the EC50 was > 92.5 µM (inactive). Turning to `Clc1ccc(CN2CCN(c3ncccn3)CC2)cc1`, the EC50 is > 92.5 µM (inactive). Turning to `Brc1ccc(CN2CCN(c3ccccn3)CC2)s1`, the EC50 is > 92.5 µM (inactive). Consider `CCc1ccc(CN2CCN(C(=O)c3ccco3)CC2)cc1`, for which the EC50 is > 92.5 µM (inactive). The value for `Fc1cccc(CN2CCN(c3ncccn3)CC2)c1` was > 92.5 µM (inactive). Regarding `Fc1ccc(F)c(CN2CCN(c3ncccn3)CC2)c1`, the EC50 was > 92.5 µM (inactive). Turning to `CCOc1cc(CN2CCN(C(=O)c3ccco3)CC2)ccc1OC`, the EC50 was > 92.5 µM (inactive). In the case of `Cc1ccc(CN2CCN(c3ccccn3)CC2)s1` it was > 92.5 µM (inactive). Take `COc1cc(CN2CCN(c3ncccn3)CC2)cc(OC)c1`: the EC50 is > 92.5 µM (inactive). As to `CCCN1C[C@H](CSC)C[C@@H]2c3cccc4[nH]cc(c34)C[C@H]21`, the EC50 is > 92.5 µM (inactive).

For `CC1CC(C)CN(CCOc2cccc(Cl)c2Cl)C1` (centres undefined), the EC50 is > 92.5 µM (inactive). Turning to `Fc1ccccc1CN1CCN(c2ncccn2)CC1`, the EC50 is > 92.5 µM (inactive). Take `NC1CCc2cc(O)c(O)cc2C1` (centres undefined): the EC50 is > 92.5 µM (inactive). Turning to `CC(=O)N1CCC(N2CCN(c3ccccc3F)CC2)CC1`, the EC50 is > 92.5 µM (inactive). For `O=C(c1ccco1)N1CCN(Cc2ccc(Cl)cc2)CC1`, the EC50 was > 92.5 µM (inactive).

On to `O=C(CN1CCN(c2ccccn2)CC1)Nc1ccc(Oc2ccccc2)cc1`, for which the EC50 was > 92.5 µM (inactive). `CC(COc1ccccc1)N1CCC(CO)(Cc2ccccc2)CC1` (centres undefined): the EC50 was > 92.5 µM (inactive). In the case of `COc1ccc(CN2CCN(c3ccccn3)CC2)c(OC)c1`, the EC50 was > 92.5 µM (inactive). Consider `CCCN1CCC[C@H](c2cccc(O)c2)C1`, for which the EC50 is > 92.5 µM (inactive). As for `c1ccc(CN2CCN(c3ncccn3)CC2)cc1`, the EC50 was > 92.5 µM (inactive). In the case of `C=CCN1CCc2nc(N)sc2CC1` it was > 92.5 µM (inactive); in that of `COc1cccc(OCC(O)CN2CCN(c3ccccn3)CC2)c1` (centres undefined), > 92.5 µM (inactive); in that of `CC(C)C[C@H]1C(=O)N2CCC[C@H]2[C@]2(O)O[C@](NC(=O)[C@@H]3C=C4c5cccc6[nH]c(Br)c(c56)CC4N(C)C3)(C(C)C)C(=O)N12` (some centres undefined), > 92.5 µM (inactive).

For the molecule `Cc1ccc(CN2CCN(c3ncccn3)CC2)c(C)c1`, the EC50 was > 92.5 µM (inactive).

Regarding `Cc1ccc(CN2CCN(c3ncccn3)CC2)o1`, the EC50 was > 92.5 µM (inactive). Regarding `COc1ccccc1C(=O)NCCN1CCN(c2ccccc2)CC1`, the EC50 was > 92.5 µM (inactive). In the case of `Clc1ccccc1CN1CCN(c2ccccc2)CC1`, the EC50 was > 92.5 µM (inactive). `COc1ccc(CN2CCN(c3ncccn3)CC2)c(C)c1C`: the EC50 was > 92.5 µM (inactive). Turning to `CCCN(CCC)C1CCc2cccc(O)c2C1` (centres undefined), the EC50 was > 92.5 µM (inactive). The value for `NC[C@@H]1O[C@H](C23CC4CC(CC(C4)C2)C3)Cc2c1ccc(O)c2O` was > 92.5 µM (inactive); that for `CCOC(=O)C1CCN(Cc2cccc(Oc3ccc(Cl)cc3)c2)CC1` was > 92.5 µM (inactive). Regarding `CCn1c(=O)cc(SCC(=O)NCCCN2CCN(c3ccccc3F)CC2)c2ccccc21`, the EC50 is > 92.5 µM (inactive).

As for `CC1(C)C(C=C(Cl)Cl)C1C(=O)N1CCN(Cc2ccccc2)CC1` (centres undefined), the EC50 is > 92.5 µM (inactive). `COc1ccc(CN2CCN(c3ncccn3)CC2)c(OC)c1`: the EC50 was > 92.5 µM (inactive). On to `Cc1ccsc1CN1CCN(c2ccccn2)CC1`, for which the EC50 is > 92.5 µM (inactive). In the case of `CCOc1ccc(NC(=O)CCN2CCN(c3ccccc3F)CC2)cc1`, the EC50 was > 92.5 µM (inactive).

Consider `Cn1cc(C(F)(F)F)nc1-c1ccc(OCC(O)CNCCOc2ccc(O)c(C(N)=O)c2)cc1` (centres undefined), for which the EC50 was > 92.5 µM (inactive). With `COc1cc(Br)cc(CN2CCN(c3ncccn3)CC2)c1O`, the EC50 was > 92.5 µM (inactive). As to `COc1cccc(-n2cc(CNCc3cn(C)nc3-c3ccccc3F)cn2)c1`, the EC50 is > 92.5 µM (inactive).

In the case of `CC(CCc1ccc(O)cc1)NCCc1ccc(O)c(O)c1` (centres undefined), the EC50 is > 92.5 µM (inactive).

For the molecule `Clc1ccccc1CN1CCN(c2ncccn2)CC1`, the EC50 was > 92.5 µM (inactive). On to `Oc1ccc(CN2CCN(c3ncccn3)CC2)cc1`, for which the EC50 was > 92.5 µM (inactive). Turning to `OCC1(Cc2cccc(C(F)(F)F)c2)CCN(Cc2cc3ccccc3o2)CC1`, the EC50 was > 92.5 µM (inactive). With `c1ccc(COc2ccc(CN3CCN(c4ccccn4)CC3)cc2)cc1`, the EC50 is > 92.5 µM (inactive).

For the molecule `c1ccc(N2CCN(Cc3ccsc3)CC2)nc1`, the EC50 is > 92.5 µM (inactive).

In the case of `Cc1cccc(CN2CCN(c3ccccn3)CC2)c1`, the EC50 is > 92.5 µM (inactive).

With `COc1ccc(CN2CCN(C(=O)c3ccco3)CC2)cc1OCc1ccccc1`, the EC50 was > 92.5 µM (inactive). As for `CN(c1ccc(C(=O)N2CCN(Cc3ccccc3)CC2)cc1)S(=O)(=O)c1ccc(Cl)cc1`, the EC50 was > 92.5 µM (inactive). Take `OC(COc1ccc2cc(Br)ccc2c1)CN1CCN(c2ccccn2)CC1` (centres undefined): the EC50 was > 92.5 µM (inactive). On to `Clc1ccc(CN2CCN(c3ncccn3)CC2)cc1Cl`, for which the EC50 is > 92.5 µM (inactive). In the case of `Cc1cccc(CN2CCN(c3ncccn3)CC2)c1` it was > 92.5 µM (inactive). In the case of `CC(=O)N1CCc2cc(C(=O)CN3CCN(c4cccc(Cl)c4)CC3)ccc21` it was > 92.5 µM (inactive).
